# How the values were obtained:
# [1] = molecular target: T1, OAT3h (Homo sapiens, UniProt Q8TCC7); experiment: 1 min uptake into 293 cells expressing OAT3h; type: cell-based; conditions: for clearance: 1 min uptake, 0.1 μmol/l radiotracer
# T1 construct: expressed in transfected cells; host or cells: 293 cells (HEK-293)
# T1 sequence (Q8TCC7 1-542): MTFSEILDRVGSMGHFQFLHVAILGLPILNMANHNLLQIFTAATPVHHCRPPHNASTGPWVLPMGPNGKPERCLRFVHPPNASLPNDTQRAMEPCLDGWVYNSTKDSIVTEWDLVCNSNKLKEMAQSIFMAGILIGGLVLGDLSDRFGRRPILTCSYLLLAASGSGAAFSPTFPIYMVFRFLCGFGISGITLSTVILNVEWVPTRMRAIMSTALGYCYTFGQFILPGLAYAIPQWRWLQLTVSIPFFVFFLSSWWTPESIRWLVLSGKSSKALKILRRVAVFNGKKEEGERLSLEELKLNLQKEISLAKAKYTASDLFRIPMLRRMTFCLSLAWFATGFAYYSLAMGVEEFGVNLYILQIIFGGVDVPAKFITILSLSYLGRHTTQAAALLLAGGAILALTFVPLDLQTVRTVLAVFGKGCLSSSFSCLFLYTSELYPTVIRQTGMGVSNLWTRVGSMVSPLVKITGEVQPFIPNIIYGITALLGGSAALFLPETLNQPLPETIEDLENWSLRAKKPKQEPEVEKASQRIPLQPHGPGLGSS
# Protocol: Uptake was measured at 37° C.
# [2] = molecular target: T2, OAT2h mutant E441Q (Homo sapiens, UniProt Q9Y694, E443Q); experiment: uptake by OAT2h mutant E441Q (eGFP chimera) in 293 cells; type: cell-based; conditions: 1 min, 37° C., 0.1 μmol/l radiolabeled solute
# T2 construct: expressed in transfected cells; host or cells: 293 cells (HEK-293), doxycycline-inducible
# T2 sequence (Q9Y694 1-546 isoform Q9Y694-2 E441Q): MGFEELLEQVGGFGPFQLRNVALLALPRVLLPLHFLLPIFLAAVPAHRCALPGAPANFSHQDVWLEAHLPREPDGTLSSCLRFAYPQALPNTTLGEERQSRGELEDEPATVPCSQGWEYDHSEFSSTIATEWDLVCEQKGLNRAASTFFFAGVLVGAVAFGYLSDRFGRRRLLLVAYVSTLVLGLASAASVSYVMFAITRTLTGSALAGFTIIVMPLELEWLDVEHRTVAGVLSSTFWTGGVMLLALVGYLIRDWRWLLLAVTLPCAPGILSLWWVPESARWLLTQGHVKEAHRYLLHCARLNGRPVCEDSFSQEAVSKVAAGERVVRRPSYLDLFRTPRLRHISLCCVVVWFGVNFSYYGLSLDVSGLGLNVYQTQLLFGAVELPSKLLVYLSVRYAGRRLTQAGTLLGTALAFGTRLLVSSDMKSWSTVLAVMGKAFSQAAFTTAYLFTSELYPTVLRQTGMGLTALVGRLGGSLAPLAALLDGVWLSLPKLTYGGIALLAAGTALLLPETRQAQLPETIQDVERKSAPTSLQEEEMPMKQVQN
# Protocol: 293 cells transfected for expression of eGFP chimera of OAT2h wild-type or OAT2hE441Q in dishes were incubated (1 min, 37° C.) with 0.1 μmol/l radiolabeled solute in uptake buffer, washed, and lysed. Cell lysates were analyzed by liquid scintillation counting.
# In transmembrane segment 10, the OAT2 orthologues from human, horse, pig, cattle, rabbit, rat, mouse, opossum, and chicken uniformly contain a glutamate (E441 in OAT2h) that is absent in the related carriers OAT1, OAT3, and SLC22A13. Since in other SLC22 family members transmembrane segment 10 is involved in substrate discrimination (Bacher et al. Biochim Biophys Acta 2009; 1788:2594-2602.), the negative charge of the glutamate side chain could specifically attract the ammonium residue of the glutamate substrate. To test this hypothesis, a mutant of OAT2h was created with glutamine at position 441 (E441 Q); eGFP was attached to the C-terminus to verify unaltered membrane trafficking (FIG. 23). […] It follows that E441 is essential for transport of glutamate. […]
Compound,transport of glutamate (in words) [1],clearance [1],uptake with mutant E441Q versus wild-type (in words) [2]
N[C@@H](CCC(=O)O)C(=O)O [glutamate],do not transport,0.2±0.6 μl min-1 mg protein-1,completely abolished
O=C(O)c1cc(=O)[nH]c(=O)[nH]1 [orotic acid],,0.7±0.1 μl min-1 mg protein-1,"much reduced, but still evident"

# Reference: US20140090094A1, “MODULATORS OF SLC22A7” (BAYER INTELLECTUAL PROPERTY GmbH, priority 2011, published 2014)
